Results published in patent publication US20260325469A1, “COMPOSITION FOR ANIMALS” (priority 2023, published 2026).

How the values were obtained:
[1] = Solubility in concentrated stock solution; format: physicochemical; conditions: concentrated stock solution / acidic solutions
Text: A concentrated stock solution is required to facilitate administration through drinking water.

[2] = Example 1.3: feeding experiments, TLA composition via drinking water, feed free from medical zinc, weight gain and diarrhoea; format: in vivo, piglets (day-one weaned); conditions: comparison of AWG ratio with Example 1.2, light diarrhoea environment
Procedure: In Example 1.3, a composition comprising [COMPOUND LEFT OUT] lactic acid, [COMPOUND LEFT OUT] acetic acid and tannic acid was administered to piglets in combination with a feed free from medical zinc.
A batch solution was prepared using [COMPOUND LEFT OUT] lactic acid (80% lactic acid, Frederiksen, DK); acetic acid (5%, Organic Vinegar, Netto, DK) and tannic acid (Sigma) corresponding to a content of 10% Tannic acid, 69% lactic acid and 1.4% acetic acid. This composition is hereafter named TLA stock (tannic acid, lactic acid and acetic acid stock).
Two independent one-week feeding experiments were carried out with day-one weaned piglets (Example 1.3.1 and 1.3.2).
The concentrated TLA stock feed additive was prepared and used to mix with the standard setup for drinking water used by the weaned pigs at the farm. The dry feed is as described above.
The feed received by both the test and control groups was free from medical zinc. In each experiment, two test groups were administered the TLA composition in drinking water while two control groups received standard tap water. The total weight of all piglets in each group was measured at the initiation of the experiment (Day 0, “Start total weight”) and after one (Day 7) and two weeks (Day 14) as indicated (“End total weight”). […]
Following one-week administration, the total weight gain of each group was monitored. […]

[3] = tested on: E. coli cells producing F4 fimbriae; assay: Example 4.1: E. coli agglutination test; format: cell-based; conditions: concentrations identical to Example 3.1; OD450 1.5 cells, 5 μL + 5 μL on glass plate
Procedure: The effect of three different compositions on E. coli agglutination were tested: (i) lactic acid and acetic acid, (ii) tannic acid, (iii) lactic acid, acetic acid and tannic acid.
A recombinant E. coli strain constitutively expressing F4 fimbriae was washed three times with 0.9% sodium chloride, and cells corresponding to an optical density (OD450) of 1.5 were resuspended in 50 μL of 0.9% sodium chloride.
5 μL of the cell suspension was mixed with 5 μL of either (i) lactic acid and acetic acid, (ii) tannic acid or (iii) lactic acid, acetic acid and tannic acid on the surface of a glass plate.
The concentration of each of these components were identical to those delivered to the pigs in Example 3.1.

| Compound | Solubility [1] | Contribution of tannic acid to weight increase [2] | E. coli agglutination [3] |
| --- | --- | --- | --- |
| O=C(OC[C@H]1O[C@@H](OC(=O)c2cc(O)c(O)c(OC(=O)c3cc(O)c(O)c(O)c3)c2)[C@H](OC(=O)c2cc(O)c(O)c(OC(=O)c3cc(O)c(O)c(O)c3)c2)[C@@H](OC(=O)c2cc(O)c(O)c(OC(=O)c3cc(O)c(O)c(O)c3)c2)[C@@H]1OC(=O)c1cc(O)c(O)c(OC(=O)c2cc(O)c(O)c(O)c2)c1)c1cc(O)c(O)c(OC(=O)c2cc(O)c(O)c(O)c2)c1 [tannic acid, 1,2,3,4,6-penta-O-{3,4-dihydroxy-5-[(3,4,5-trihydroxybenzoyl)oxy]benzoyl}-D-glucopyranose] | high solubility in acidic solutions | additional effect of tannic acid in the increase in weight | does not show any significant aggregation of the cells |
| albumin-tannate [reference compound] | problems with solubility, resulting in non-homogeneous solutions comprising a precipitate | – | – |
